Test results published in patent publication US20130059787A1, “METHODS OF USING HUMAN PROTEIN KINASE C DELTA VIII AS A BIOMARKER” (UNITED STATES DEPARTMENT OF VETERAN AFFAIRS, priority 2010, published 2013).

Tests used:
SR proteins = assay: Western blot of NT2 whole cell lysates with mAb104 antibody; type: cell-based, human; settings: RA about 10 μM, about 24 h; NT2 cells
Description: FIG. 6 is a series of images illustrating the detection of SR proteins involved in RA-mediated PKXδVIII expression. NT2 cells were treated with RA (about 10 μM) for about 24 h or without RA (control), and Western blot analysis was performed on whole cell lysates using (a) mAb104 antibody that detects all SR proteins and (b) specific antibodies as indicated in the figure. Molecular masses are indicated (kDa).
Cell lysates (about 40 μg) were separated on 10% SDS-PAGE. […] In apoptotic cells, PARP is cleaved by caspase 3 into an 85 kDa fragment which is detected in addition to the 116 KDa fragment using anti-PARP antibody in western blot analysis. […] (Putt K S, Beilman G J, and H. P J., Direct quantitation of poly(ADP-ribose) polymerase (PARP) activity as a means to distinguish necrotic and apoptotic death in cell and tissue samples. Chembiochem, 2005. 6: p. 53-55)
(SR) proteins that bind to exonic or intronic splicing enhancers (ESE, ISE) on the pre-mRNA. […] NT2 cells were treated with or without RA (about 24 h), and whole cell lysates were analyzed by Western blot analysis using mAb104 antibody that simultaneously detects the phosphoepitopes on all SR proteins. […]

PKCδVIII = assay: RT-PCR with human PKCδ primers in primary neuronal cells from hippocampus; type: cell-based; settings: RA about 24 h
Description: FIG. 2 is a series of images indicating the expression of PKCδVIII. (a) an image showing that both PKCδI and PKCδVIII were detected and the levels of PKCδVIII increased with retinoic acid treatment. Primary neuronal cells from hippocampus were treated with RA for about 24 h. Total RNA was extracted and RT-PCR performed with primers described in FIG. 1 which detect both PKCδI and PKCδVIII simultaneously. (b) an image showing that the expression of PKCδVIII is tissue-specific with the highest levels seen in the fetal brain. Human fetal tissue specific cdNAs were used in PCR analysis using PKCδVIII-specific primers. (i) Liver (ii) kidney (iii) heart (iv) spleen (v) brain. About five percent products were separated on PAGE and detected by silver nitrate staining […]
Using PKCδ primers, PKCδI and PKCδVIII are detected simultaneously: PKCδI is 368 bp and PKCδVIII is 461 bp. […] About 5% of products were resolved on 6% PAGE gels and detected by silver staining. The PCR reaction was optimized for linear range amplification to allow for quantification of products. […]
The inventors looked for the expression of PKCδ isozymes in primary neuronal cells to verify the expression pattern of PKCδVIII. […] PKCδI and PKCδVIII isoforms were detected and the levels of PKCδVIII increased with retinoic acid treatment (FIG. 2a). PKCδVIII was not detected in aorta smooth muscle cells or skeletal muscle cells (data not shown). […]

ischemic stroke = settings: RA injections immediately and following ischemia; cited from earlier work

## CC1=C(/C=C/C(C)=C/C=C/C(C)=C/C(=O)O)C(C)(C)CCC1 [RA, all-trans-retinoic acid]
SR proteins
  SR protein at ~30 kDa expression (mAb104): increased in expression
PKCδVIII
  levels of PKCδVIII (RT-PCR): increased
Ischemic stroke
  infarct volume: reduced
